Assay results from PMC9692542, “First Report of the Molecular Mechanism of Resistance to Tribenuron-Methyl in Silene conoidea L” (Plants, 2022).

Test system: T1, ALS (acetolactate synthase)
T1 construct: native enzyme in leaf extract, not purified
Test: in vitro ALS activity of leaf extract, colorimetric acetoin ([…] nm)
Type: biochemical, Silene conoidea
Conditions: leaf extract of susceptible population; read-out: I50 (μM) ^c

## COC(=O)c1ccccc1S(=O)(=O)NC(=O)N(C)c1nc(C)nc(OC)n1 [tribenuron-methyl, methyl 2-[[[[N-(4-methoxy-6-methyl-1,3,5triazin-2-yl)methyl-amino]carbonyl]amino]sulfonyl]benzoate]
  IC50: 11.6 ± 1 µM
